The text below walks through data of the supplement of paper PMC6004109.

What all share (conditions): temperature: 37 °C
Experiment [1] concerns Candida glabrata ZIM 2344 (RPMI). The experiment is described as follows: FICI minimum (fractional inhibitory concentration index, Loewe) (dimensionless); higher = less synergy / more antagonism. The essentials:
(§1)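 Yeast strains were tested against two-drug combinations by CLSI M27-A3 checkerboard broth microdilution, with clinical isolates in RPMI and C. glabrata ATCC 2001 and a strain derived from it in YPD. Each well held 100 µl of drug dilutions plus 100 µl of an inoculum at 3–5 × 10^3 cells/ml, incubated at 37 °C and read at 48 h as background-subtracted OD600 in at least biological triplicates. The reported figure is the lowest or highest Loewe fractional inhibitory concentration index across the combination surface, summing for each drug its MIC in combination divided by its MIC alone. Depending on the drug, the MIC was taken as MIC50 or MIC90.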

In experiment [2] the test system is Candida glabrata ZIM 2365 (RPMI). The description is as above. The essentials:
as §1

Experiment [3] has as its system Candida glabrata ZIM 2369 (RPMI). The description is as above. The essentials: as §1
Experiment [4] concerns Candida glabrata ZIM 2385 (RPMI). Described as above. The essentials: as §1
In experiment [5] the test system is Saccharomyces cerevisiae ZIM 2247 (RPMI). The experiment is described as above. The essentials:
as §1

In experiment [6] the test system is Saccharomyces cerevisiae ZIM 2255 (RPMI). Described as above. The essentials: as §1
For experiment [7], the system named is Saccharomyces cerevisiae ZIM 2260 (RPMI). Described as above. The essentials:
as §1

Experiment [8] has as its system Saccharomyces cerevisiae ZIM 2269 (RPMI). The description is as above. The essentials:
as §1

Experiment [9] concerns Saccharomyces cerevisiae ZIM 2558 (RPMI). Described as above. The essentials:
as §1

The subject of experiment [10] is Saccharomyces cerevisiae ZIM 2566 (RPMI). Described as above. The essentials: as §1
Experiment [11] relates to Candida glabrata ATCC 2001 (YPD). The description is as above. The essentials:
as §1

In experiment [12] the test system is Candida glabrata ATCC 2001 pdr1 deletion mutant (YPD). The experiment is described as above. The essentials:
as §1

The test system of experiment [13] is Candida glabrata ATCC 2001 (YPD). The experiment is described as follows: FICI maximum (fractional inhibitory concentration index, Loewe) (dimensionless); higher = less synergy / more antagonism. The essentials:
as §1

In experiment [14] the test system is Candida glabrata ATCC 2001 pdr1 deletion mutant (YPD). Described as above. The essentials:
as §1

Experiment [15] concerns Candida glabrata ATCC 2001 (YPD). Description: Bliss independence sum of statistically significant ΔE (measured minus predicted growth inhibition) over checkerboard surface (fraction (sum of ΔE; 1 = 100%)); higher = more synergy.
In experiment [16] the test system is Candida glabrata ATCC 2001 pdr1 deletion mutant (YPD). The experiment is described as above.

For `COc1c(C)c2c(c(O)c1C/C=C(\C)CCC(=O)O)C(=O)OC2` [mycophenolic acid] + C[C@@H]1[C@H](O)[C@@H](C)/C=C/C=C/C=C/C=C/C=C/C=C/C=C/[C@H](O[C@@H]2O[C@H](C)[C@@H](O)[C@H](N)[C@@H]2O)C[C@@H]2O[C@](O)(C[C@@H](O)C[C@@H](O)[C@H](O)CC[C@@H](O)C[C@@H](O)CC(=O)O[C@H]1C)C[C@H](O)[C@H]2C(=O)O [amphotericin B], the FICI minimum in [1] came to 0.625; in experiment [2] it was 0.5; in experiment [3] it was 0.75; in [4], 0.5; in experiment [5], 0.767; in experiment [6], 1. Also, the FICI minimum in [7] is 0.58; in [8], 1.03; in experiment [9], 0.375; in experiment [10], 0.633.
With `COc1c(C)c2c(c(O)c1C/C=C(\C)CCC(=O)O)C(=O)OC2` [mycophenolic acid] + OC(Cn1cncn1)(Cn1cncn1)c1ccc(F)cc1F [fluconazole], the FICI minimum was 1.06 in [11]; 1.03 in experiment [12]; 1.01 in experiment [1]; 1.02 in experiment [2]; 1.01 in [3]; 0.508 in [4]. Moreover, the FICI minimum was found to be 2.02 in [5]; 2.5 in experiment [6]; 0.66 in [7]; 1.01 in [8]; 1.01 in experiment [9]; 1.01 in [10]. Also, the FICI maximum came out at 2.5 in [13] and 2.12 in [14]. The Bliss independence sum in experiment [15] is -2.6; in experiment [16] it was -3.21.
For the molecule `C=CC[C@@H]1/C=C(\C)C[C@H](C)C[C@H](OC)[C@H]2O[C@@](O)(C(=O)C(=O)N3CCCC[C@H]3C(=O)O[C@H](/C(C)=C/[C@@H]3CC[C@@H](O)[C@H](OC)C3)[C@H](C)[C@@H](O)CC1=O)[C@H](C)C[C@@H]2OC` [tacrolimus] + CCC(C)n1ncn(-c2ccc(N3CCN(c4ccc(OCC5COC(Cn6cncn6)(c6ccc(Cl)cc6Cl)O5)cc4)CC3)cc2)c1=O [itraconazole], the FICI minimum in [1] stood at 0.125; in experiment [2] it was 0.5; in [3], 0.25; in experiment [4] it was 0.0725; in experiment [5], 0.501; in experiment [6], 0.254. Also, the FICI minimum was found to be 0.251 in experiment [7], 0.75 in experiment [8], 0.25 in [9] and 0.13 in experiment [10].
With `CN(Cc1cnc2nc(N)nc(N)c2n1)c1ccc(C(=O)N[C@@H](CCC(=O)O)C(=O)O)cc1` [methotrexate] + OC(Cn1cncn1)(Cn1cncn1)c1ccc(F)cc1F [fluconazole], the FICI minimum in [1] is 0.505; in experiment [2] it was 1; in experiment [3], 1; in [4], 1; in experiment [5] it was 1; in experiment [6], 1. Also, the FICI minimum in [7] is 1.01; in experiment [8] it was 0.656; in experiment [9] it was 0.406; in [10], 1.
Take `CC1(C)S[C@@H]2[C@H](NC(=O)[C@H](N)c3ccc(O)cc3)C(=O)N2[C@H]1C(=O)O` [amoxicillin] + C[C@@H]1[C@H](O)[C@@H](C)/C=C/C=C/C=C/C=C/C=C/C=C/C=C/[C@H](O[C@@H]2O[C@H](C)[C@@H](O)[C@H](N)[C@@H]2O)C[C@@H]2O[C@](O)(C[C@@H](O)C[C@@H](O)[C@H](O)CC[C@@H](O)C[C@@H](O)CC(=O)O[C@H]1C)C[C@H](O)[C@H]2C(=O)O [amphotericin B]: the FICI minimum in experiment [1] is 0.133; in experiment [2] it was 0.258; in experiment [3], 1.01; in experiment [4] it was 0.508; in experiment [5], 1.01; in [6], 1.01. The FICI minimum in [7] is 1.01; in experiment [8], 1.01; in experiment [9], 2.02; in experiment [10] it was 0.562.
As to `CC1(C)S[C@@H]2[C@H](NC(=O)[C@H](N)c3ccc(O)cc3)C(=O)N2[C@H]1C(=O)O` [amoxicillin] + CCC(C)n1ncn(-c2ccc(N3CCN(c4ccc(OCC5COC(Cn6cncn6)(c6ccc(Cl)cc6Cl)O5)cc4)CC3)cc2)c1=O [itraconazole], the FICI minimum in experiment [1] stood at 0.0703; in experiment [2] it was 0.562; in experiment [3], 1.01; in experiment [4], 1.01; in experiment [5] it was 0.508; in experiment [6] it was 1.01. Moreover, the FICI minimum came to 1.01 in experiment [7], 1 in experiment [8], 0.508 in experiment [9] and 1.01 in [10].
With `CN(Cc1cnc2nc(N)nc(N)c2n1)c1ccc(C(=O)N[C@@H](CCC(=O)O)C(=O)O)cc1` [methotrexate] + CCC(C)n1ncn(-c2ccc(N3CCN(c4ccc(OCC5COC(Cn6cncn6)(c6ccc(Cl)cc6Cl)O5)cc4)CC3)cc2)c1=O [itraconazole], the FICI minimum amounted to 1 in experiment [1]; 0.505 in experiment [2]; 1 in [3]; 0.505 in experiment [4]; 0.505 in experiment [5]; 1 in experiment [6]. Moreover, the FICI minimum in experiment [7] is 1.08; in experiment [8], 1; in experiment [9], 0.656; in experiment [10], 1.
Consider `CN(Cc1cnc2nc(N)nc(N)c2n1)c1ccc(C(=O)N[C@@H](CCC(=O)O)C(=O)O)cc1` [methotrexate] + C[C@@H]1[C@H](O)[C@@H](C)/C=C/C=C/C=C/C=C/C=C/C=C/C=C/[C@H](O[C@@H]2O[C@H](C)[C@@H](O)[C@H](N)[C@@H]2O)C[C@@H]2O[C@](O)(C[C@@H](O)C[C@@H](O)[C@H](O)CC[C@@H](O)C[C@@H](O)CC(=O)O[C@H]1C)C[C@H](O)[C@H]2C(=O)O [amphotericin B], for which the FICI minimum in [1] came to 0.656; in [2], 1; in experiment [3], 1; in experiment [4], 2; in experiment [5], 1; in experiment [6], 0.516. Besides, the FICI minimum in [7], in experiment [8], in experiment [9] and in [10] was 1 throughout.
For `C=CC[C@@H]1/C=C(\C)C[C@H](C)C[C@H](OC)[C@H]2O[C@@](O)(C(=O)C(=O)N3CCCC[C@H]3C(=O)O[C@H](/C(C)=C/[C@@H]3CC[C@@H](O)[C@H](OC)C3)[C@H](C)[C@@H](O)CC1=O)[C@H](C)C[C@@H]2OC` [tacrolimus] + C[C@@H]1[C@H](O)[C@@H](C)/C=C/C=C/C=C/C=C/C=C/C=C/C=C/[C@H](O[C@@H]2O[C@H](C)[C@@H](O)[C@H](N)[C@@H]2O)C[C@@H]2O[C@](O)(C[C@@H](O)C[C@@H](O)[C@H](O)CC[C@@H](O)C[C@@H](O)CC(=O)O[C@H]1C)C[C@H](O)[C@H]2C(=O)O [amphotericin B], the FICI minimum in experiment [1] came out at 0.516; in experiment [2], 0.25; in [3], 0.258; in [4] it was 0.281; in experiment [5] it was 0.0638; in experiment [6] it was 0.0938. Moreover, the FICI minimum in experiment [7] was 0.251; in [8] it was 0.0825; in [9], 0.252; in experiment [10], 0.25.
Regarding `C=CC[C@@H]1/C=C(\C)C[C@H](C)C[C@H](OC)[C@H]2O[C@@](O)(C(=O)C(=O)N3CCCC[C@H]3C(=O)O[C@H](/C(C)=C/[C@@H]3CC[C@@H](O)[C@H](OC)C3)[C@H](C)[C@@H](O)CC1=O)[C@H](C)C[C@@H]2OC` [tacrolimus] + OC(Cn1cncn1)(Cn1cncn1)c1ccc(F)cc1F [fluconazole], the FICI minimum in experiment [1] was 0.25; in experiment [2] it was 1; in experiment [3], 0.5; in experiment [4] it was 1; in [5], 0.126; in [6], 0.156. Further, the FICI minimum in [7] came out at 0.135; in [8] it was 0.255; in experiment [9], 0.135; in [10], 0.135.
